PubChem BioAssay (NCI)
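Step 1: Grow cells in 96-well plates. Step 2: Expose to compound for 48 hours at 5 concentrations. Step 3: Interpolate endpoints linearly; if unreached, use highest concentration. Abbreviation: GI50, concentration required for 50% inhibition of growth. TGI marks complete inhibition of growth.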

Columns and labels:
Assay in all cases: NCI tumour cell line growth inhibition, 48 h
HOP-18 NSCLC = system: HOP-18 NSCLC
DLD-1 colon = system: DLD-1 colon
SNB-78 CNS = system: SNB-78 CNS
M19-MEL melanoma = system: M19-MEL melanoma
KM20L2 colon = system: KM20L2 colon
P388 leukemia = system: P388 leukemia
DMS 273 small cell lung = system: DMS 273 small cell lung
P388/ADR leukemia = system: P388/ADR leukemia
SN12K1 renal = system: SN12K1 renal
DMS 114 small cell lung = system: DMS 114 small cell lung
LXFL 529 NSCLC = system: LXFL 529 NSCLC
RXF-631 renal = system: RXF-631 renal

## CC(C)C1NC(=O)CC(c2ccccc2)N(N=O)C1c1ccccc1 (centres undefined)
HOP-18 NSCLC
  TGI: > 100 µM
DLD-1 colon
  TGI: > 100 µM
SNB-78 CNS
  TGI: > 100 µM
M19-MEL melanoma
  TGI: > 100 µM
KM20L2 colon
  TGI: > 100 µM
P388 leukemia
  TGI: > 100 µM
DMS 273 small cell lung
  TGI: > 100 µM
P388/ADR leukemia
  TGI: > 100 µM
SN12K1 renal
  TGI: > 100 µM
DMS 114 small cell lung
  TGI: > 100 µM

## COc1cc(C2(c3ncc[nH]3)SSSCC2O)ccc1O (centres undefined)
HOP-18 NSCLC
  TGI: > 100 µM
DLD-1 colon
  TGI: > 100 µM
SNB-78 CNS
  TGI: > 100 µM
M19-MEL melanoma
  TGI: > 39.6 µM
KM20L2 colon
  TGI: > 100 µM
P388 leukemia
  TGI: > 48.1 µM
DMS 273 small cell lung
  TGI: > 100 µM
P388/ADR leukemia
  TGI: > 54.8 µM
SN12K1 renal
  TGI: > 55.4 µM
DMS 114 small cell lung
  TGI: 52.2 µM

## S=c1ncc2c([nH]1)C1c3ccccc3C2c2ccccc21
SNB-78 CNS
  TGI: > 100 µM
M19-MEL melanoma
  TGI: > 100 µM
LXFL 529 NSCLC
  TGI: > 100 µM
KM20L2 colon
  TGI: > 100 µM
DMS 273 small cell lung
  TGI: > 100 µM
DMS 114 small cell lung
  TGI: > 100 µM

## COc1cc(OC)cc(-c2cc(=O)c3cc4c(cc3[nH]2)OCO4)c1
HOP-18 NSCLC
  TGI: > 75.6 µM
DLD-1 colon
  TGI: 36.4 µM
SNB-78 CNS
  TGI: > 89.2 µM
M19-MEL melanoma
  TGI: > 100 µM
LXFL 529 NSCLC
  TGI: 20.6 µM
KM20L2 colon
  TGI: 0.652 µM
DMS 273 small cell lung
  TGI: 3.31 µM
DMS 114 small cell lung
  TGI: 0.726 µM

## C/C=C1\CN2CCc3c([nH]c4ccccc34)C2CC1CCO (centres undefined)
HOP-18 NSCLC
  TGI: > 100 µM
DLD-1 colon
  TGI: > 100 µM
SNB-78 CNS
  TGI: > 100 µM
RXF-631 renal
  TGI: > 100 µM
M19-MEL melanoma
  TGI: > 100 µM
LXFL 529 NSCLC
  TGI: > 100 µM
KM20L2 colon
  TGI: > 100 µM
DMS 273 small cell lung
  TGI: > 100 µM
DMS 114 small cell lung
  TGI: > 100 µM

## C/C(=N\NC(=O)c1ccccc1O)c1cccc(/C(C)=N/NC(=O)c2ccccc2O)n1.O=S(=O)([O-])[O-].[Fe+2]
DLD-1 colon
  GI50: > 100 µM
  TGI: > 100 µM
SNB-78 CNS
  GI50: > 100 µM
  TGI: > 100 µM
M19-MEL melanoma
  GI50: > 100 µM
  TGI: > 100 µM
KM20L2 colon
  GI50: > 100 µM
  TGI: > 100 µM
DMS 273 small cell lung
  GI50: 46.4 µM
  TGI: > 100 µM
DMS 114 small cell lung
  TGI: > 100 µM

## O=C(c1ccc(Cl)cc1)c1ccc(OCCCOc2ccc(C(=O)c3ccc(Cl)cc3)cc2Cl)c(Cl)c1
DLD-1 colon
  TGI: > 100 µM
SNB-78 CNS
  TGI: > 100 µM
RXF-631 renal
  TGI: > 100 µM
M19-MEL melanoma
  TGI: > 100 µM
LXFL 529 NSCLC
  TGI: > 100 µM
KM20L2 colon
  TGI: > 100 µM
DMS 273 small cell lung
  TGI: > 100 µM
DMS 114 small cell lung
  TGI: > 100 µM

## Cn1c2ccccc2c(=O)c2c(O)cc3c(c21)C=CC(C)(C)O3
HOP-18 NSCLC
  TGI: > 25 µM
DLD-1 colon
  TGI: > 25 µM
SNB-78 CNS
  TGI: > 25 µM
M19-MEL melanoma
  TGI: > 25 µM
KM20L2 colon
  TGI: > 25 µM
P388 leukemia
  TGI: > 25 µM
DMS 273 small cell lung
  TGI: > 25 µM
P388/ADR leukemia
  TGI: > 25 µM
SN12K1 renal
  TGI: > 25 µM
DMS 114 small cell lung
  TGI: > 25 µM

## CSCSCC(CO)NC(=O)/C(C)=C\c1c(C)[nH]c(=O)[nH]c1=O (centres undefined)
DLD-1 colon
  TGI: > 250 µM
SNB-78 CNS
  TGI: > 250 µM
M19-MEL melanoma
  TGI: > 250 µM
KM20L2 colon
  TGI: > 250 µM
P388 leukemia
  TGI: > 250 µM
DMS 273 small cell lung
  TGI: > 250 µM
P388/ADR leukemia
  TGI: > 250 µM
SN12K1 renal
  TGI: > 250 µM
DMS 114 small cell lung
  TGI: > 250 µM

## Cn1cc2ccccc2c1-c1nc(F)nc(Oc2ccc3c(c2)CC[C@@H]2C3CC[C@@]3(C)C2C[C@H](O)[C@@H]3O)n1 (some centres undefined)
HOP-18 NSCLC
  TGI: 54.8 µM
DLD-1 colon
  TGI: 22.1 µM
SNB-78 CNS
  TGI: 54.2 µM
M19-MEL melanoma
  TGI: 41.9 µM
LXFL 529 NSCLC
  TGI: 27.4 µM
KM20L2 colon
  TGI: 29.4 µM
DMS 273 small cell lung
  TGI: 22 µM
DMS 114 small cell lung
  TGI: 25 µM
